Our source for the Kd values is patent publication US6348317B1, “Fluorescent and DNA cleavage properties of peptide/dye conjugates” (The Arizona Board of Regents, priority 1999, dated 2002).

Common to all, as to assay: Thiazole orange total fluorescence titration with unlabeled DNA
In test [1] the target is GRE3 dsDNA (guanine of GRE changed to adenine). The conditions noted are these: TO fluorescence ex 510 nm, em 535 nm; read-out: binding constant (dissociation constant). As to the method: (§1) Fluorescence Measurements. Steady state fluorescence anisotropy measurements were carried out in 20 mM Tris (pH 7.9), 30 mM NaCl, 20 mM KCl, 1 mM MgCl2, and 5% glycerol. […] DNA samples used were either the non-labeled sequences shown in FIG. 2 or a fluorescein labeled duplex with a sequence matching GRE2 (FIG. 2).
(§2) For non-labeled DNA titrations (measuring the fluorescence from thiazole orange), the excitation wavelength was 510 nm and the emission was recorded at 535 nm with a 1.0 nm slit width. Glass cuvettes were used with a 0.3 cm path length. Titrations were performed using a constant concentration of unconjugated thiazole orange (TO) or TO-ZF and titrated with DNA as indicated.
(§3) Total fluorescence data were collected in parallel to the anisotropy measurements and were calculated from raw data as the fluorescence intensity in the vertical plane plus two times the fluorescence intensity of the horizontal plane, (TF=Ivv+2Ivh). These values were used to determine the percent of the maximum fluorescence for each point along the titration and fit to equation 2. [formula]
(§4) In equation 2, f corresponds to the fraction of TO-ZF conjugate bound at a given concentration of DNA. The concentration given as [TO(ZF)]T corresponds to either the unconjugated thiazole orange or the TOZF conjugate as indicated and [GRE]T is the total concentration of GRE binding sites. The parameter of the fit was the dissociation constant (Kd).
(§5) Titrations of the TO fluorescence upon binding of TO-ZF to unlabeled DNA were measured for the dsDNA sequences shown in FIG. 2. TO fluorescence was excited at 510 nm and collected at 535 nm. The GRE1 DNA sequence contains the same binding site as does the GRE2 DNA sequence used above, however, the GRE3 sequence contains a single mutation of the guanine in the native GRE target sequence (5′-TGTTCT-3′) to an adenine. The GRE2 and GRE3 sequences were generated for use in the photocleavage measurements described below. Finally, the GRE4 and ERE recognition sequences are from the non-specific GRE halfsite and the estrogen response element (ERE), respectively. M. A. L. Eriksson, J. Molec. Biol. 253:453-472 (1995). These are used in conjunction with the other sequences to determine the sensitivity of this probe. The DNA is not fluorescently labeled in these measurements. Therefore, the fluorescence is exclusively from thiazole orange molecules intercalated into dsDNA.
(§6) Fitting the binding curves to a two-state binding model (see Materials and Methods) results in a dissociation constant of 25 nM for GRE1 and GRE2, which contain the native GRE. Titrations of the modified GRE sequences and the ERE sequence yielded binding constants of 57 nM, 220 nM and 810 nM for the TO-ZF conjugate bound to GRE3, GRE4, and ERE, respectively.

Test [2] concerns the target GRE4 dsDNA (non-specific GRE halfsite). The conditions noted are these: TO fluorescence ex 510 nm, em 535 nm; read-out: binding constant (dissociation constant). As to the method: as §1, §2, §3, §4, §5, §6
Test [3] addresses ERE dsDNA (estrogen response element). The conditions noted are these: TO fluorescence ex 510 nm, em 535 nm; read-out: binding constant (dissociation constant). As for the experimental part:
as §1, §2, §3, §4, §5, §6

Test [4] has as its target GRE2 dsDNA (native GRE target sequence). The conditions noted are these: TO fluorescence ex 510 nm, em 535 nm; read-out: dissociation constant, two-state binding model. As to the method: as §1, §2, §3, §4, §5, §6
The target of test [5] is GRE1 dsDNA (native GRE target sequence). The conditions noted are these: TO fluorescence ex 510 nm, em 535 nm; read-out: dissociation constant, two-state binding model. As to the method:
as §1, §2, §3, §4, §5, §6

With “TO-ZF: 29 amino acid single zinc finger from residues 438-465 of glucocorticoid receptor, thiazole orange coupled to a lysine ε-amine”, the Kd in test [1] turned out to be 57 nM; in test [2], 220 nM; in test [3] it was 810 nM; in test [4], 25 nM; in test [5] it was 25 nM.
